Each structure is given as a SMILES string.

A short description of this data set: Tissue distribution in tumor bearing mice. The class given is in vivo, nude mice (BALB/cA) implanted with NCI-H460 tumor. Particulars: n=4. The procedure:
The nude mice (BALB/cA) implanted with NCI-H460 tumor were provided by Shanghai Institute of Materia Medica. A total of 36 mice were divided into 9 groups with four animals in each group. After fasting overnight with free access to water, the mice were treated with 75 mg/kg C118P by i.v. The blood samples were collected at 2, 10, 20, 40 min, 1, 2, 4, 8, 12 h after treatment and the mice were anaesthetized and decapitated to obtain the blood and tumor tissue. Blood, brain, muscle, ovary, and lung from mice in the PK study were collected at 10 min, 1, 4, and 12 h. Tissues were cleaned by absorbent filter paper to remove the blood. Bloods were centrifuged at 10,000× g for 5 min. Each tissue (0.2 g) was homogenized with 2 mL water. The plasma samples and the homogenates were then processed and determined by the method described above. The concentration was determined by the calibration curve and the actual concentration was corrected by multiplying by 10 according to the dilution times. […]
4. The distribution of CA4P and CA4 in tumor bearing mice.
The nude mice (BALB/cA) implanted with NCI-H460 tumor were provided by Shanghai institute of Materia Medica. A total of 36 mice were divided into 9 groups with 4 animals in each group.
After fasted overnight with free access to water, the mice were treated with 75 mg/kg CA4P by i.v.
The blood samples were collected at 2, 10, 20, 40 min, 1, 2, 4, 8, 12 h after treatment and the mice were anaesthetized and decapitated to obtain the blood and tumor tissue. All procedure are same as C118P in the main text. The concentration was determined by the calibration curve and the actual concentration was corrected by multiplying by 10 according to the dilution times.

The mark [1] stands for this setting: 0.17 h after i.v. 75 mg/kg of CA4P.
The mark [2] stands for this setting: 1 h after i.v. 75 mg/kg of CA4P.
[3] abbreviates: 4 h after i.v. 75 mg/kg of CA4P.
Where [4] appears, read: 12 h after i.v. 75 mg/kg of CA4P.

In the case of `COc1ccc(/C=C\c2cc(OC)c(OC)c(OC)c2)cc1O` [CA4, Combretastain A4, reference compound], under setting [1], the concentration in Lung turned out to be 5849.0±580.7, the “concentration in Plasma” value is 12540.3±972.6, the “concentration in Tumor” value is given as 9835.7±1345.9 and the concentration in brain turned out to be 16165.3±1211.9. Besides, under setting [1], the concentration in muscle stood at 8526.1±3505.7 and the concentration in ovary is recorded as 44183.5±13169.9. Under setting [2], the concentration in Lung was found to be 759.4±242.6, the “concentration in Plasma” value is reported as 595.8±277.7, the “concentration in Tumor” value is given as 4803.9±770.6 and the concentration in brain stood at 2135.9±486.2. Further, under setting [2], the concentration in muscle is on record as 595.6±308.4 and the concentration in ovary was determined as 1288.3±711.2. Besides, under setting [3], the concentration in Lung is 106.8±12.1, the “concentration in Plasma” value worked out at 21.1±4.5, the “concentration in Tumor” value turned out to be 3677.0±1079.9 and the concentration in brain is given as 97.6±21.3. Moreover, the concentration in muscle under setting [3] came out at 142.0±33.9. Under setting [4], the “concentration in Tumor” value turned out to be 735.1±426.2 and the concentration in muscle was 51.9±36.8.

`COc1ccc(/C=C\c2cc(OC)c(OC)c(OC)c2)cc1OP(=O)([O-])[O-].[Na+].[Na+]` [CA4P, CA4 phosphate, reference compound]: the “concentration in Plasma” value is 15879.9±4473.5 under setting [1], 324.9±105.2 under setting [2], 15.0±6.8 under setting [3] and 12.6±3.3 under setting [4]. Besides, the “concentration in Tumor” value is, setting by setting: under setting [1], 142.8±49.2; under setting [2], 26.5±1.4; under setting [3], 34.5±1.9. This compound had a concentration in muscle under setting [1] of 345.2±68.9.
